# What was measured:
# Savinase [1] = molecular target: T1, Savinase (Lederbergia lenta, UniProt P29600); assay: Storage Stability Test in Liquid Detergent (Detergent base, US-type), Example 3; type: biochemical; set-up: purchased Novo Nordisk A/S; conditions: for Improvement Factor (IFI): relative to Boric Acid, US-type detergent, 1% w/w Savinase (14 KNPU/g), stabilizer 5 mmole/kg (boric acid 160 mmole/kg), 0, 3, 7 and 14 days at 30° C.
# T1 sequence (P29600 1-269): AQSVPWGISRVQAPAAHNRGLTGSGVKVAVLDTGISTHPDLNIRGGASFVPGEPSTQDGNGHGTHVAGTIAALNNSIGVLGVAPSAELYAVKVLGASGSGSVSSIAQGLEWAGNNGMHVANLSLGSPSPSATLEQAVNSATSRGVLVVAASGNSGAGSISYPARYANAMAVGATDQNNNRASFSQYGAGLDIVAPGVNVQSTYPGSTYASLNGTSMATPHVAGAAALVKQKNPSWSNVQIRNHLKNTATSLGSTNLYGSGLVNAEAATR
# Method: (§1) a) Storage Stability Test in Liquid Detergent: Enzyme(s) and stabilizer are added to a liquid detergent formulation and stored at well defined conditions. The enzyme activity of each enzyme is determined as a function of time, e.g. after 0, 3, 7 and 14 days.
# (§2) To calculate the inhibition efficiency from the storage stability date a reaction mechanism is proposed.
# (§3) From these reactions three coupled differential equations are derived describing the deactivation of P, L and PI. The reaction rate constants are derived from storage stability data by the use of a parameter estimation method (Gauss-Newton with the Levenberg modification). The storage stability data give the concentration of (P+PI) and L as a function of time.
# (§4) Reaction IV is excluded from the system to reduce the number of parameters thereby describing the stability of the inhibited enzyme by only one reaction rate constant (from equation V).
# (§5) In all experiments there is a large surplus of inhibitor molecules compared to protease molecules, i.e. a constant concentration of inhibitor (corresponding to the added amount of inhibitor) is a reasonable assumption.
# (§6) An improvement factor is thus derived: [formula] IFI measures the inhibition efficiency given by the inhibition constants KI from reaction III.
# Phenyl boronic acid derivatives were also tested in storage stability tests in liquid detergents using the method described previously under the following conditions: […]
# subtilisin = conditions: Keller et al, 1991; cited from earlier work
# Savinase [2] = molecular target: T1, Savinase; conditions: US-type detergent; 1% w/w Savinase (14 KNPU/g); 5 mmole/kg (boric acid 160 mmole/kg); 0, 2, 7 and 14 days at 30° C.
# Method: as §1, §2, §3, §4, §5, §6
# Savinase [3] = molecular target: T1, Savinase; assay: Storage Stability Test in a Commercial Detergent (Omo Micro), Example 4; type: biochemical; set-up: purchased Novo Nordisk A/S; conditions: 1.33 mM stabilizer (boric acid 160 mM), 1% w/w Savinase (8 KNPU/g), 1% w/w Lipolase (100 KLU/g), 0, 7, 15, and 21 days at 40° C.
# Method: An improvement factor is thus derived: [formula]
# The inhibition effectiveness IFI of 4-formyl-phenyl-boronic acid was also found in a commercial detergent Omo Micro.
# Omo Micro was bought in a Danish supermarket. The enzymes were inactivated at 90° C. (overnight).
# The following dosages in the detergent were used:
# 4-Formyl-phenyl-boronic acid: 1.33 mM, or
# Protease: 1% w/w Savinase (8 KNPU/g), and
# Lipase: 1% w/w Lipolase (100 KLU/g).
# Storage: 0, 7, 15, and 21 days at 40° C.
# Savinase [4] = molecular target: T1, Savinase; assay: Determination of Ki: inhibition of Savinase (SAAPFpNA substrate); type: biochemical; set-up: purchased Novo Nordisk A/S; conditions: 0.1M Tris-HCl pH 8.6, 25° C.
# Source text: b) Determination of Ki : The inhibition constant Ki may be determined by using standard methods, for reference see Keller et al, Biochem. Biophys. Res. Com. 176, 1991, pp.401-405; J. Bieth in Bayer-Symposium "Proteinase Inhibitors", pp. 463-469, Springer-Verlag, 1974 and Lone Kierstein Hansen in "Determination of Specific Activities of Selected Detergent Proteases using Protease Activity, Molecular Weights, Kinetic Parameters and Inhibition Kinetics", PhD-report, Novo Nordisk A/S and University of Copenhagen, 1991.
# The inhibition constant Ki for the inhibition of Savinase™ (available from Novo Nordisk A/S) was determined using standard methods under the following conditions: […]
# The initial rate of substrate hydrolysis was determined at nine substrate concentrations in the range of 0.01 to 2 mM using a Cobas Fara automated spectrophotometer. The kinetic parameters Vmax and Km were determined using ENZFITTER (a non-linear regression data analysis program).
# kcat was calculated from the equation Vmax =kcat X [Eo ]. The concentration of active enzyme [Eo ] was determined by active site titration using tight-binding protein proteinase inhibitors. The inhibition constant Ki was calculated from plots of Km /kcat as a function of the concentration of inhibitor. The inhibitors were assumed to be 100% pure and the molar concentrations were determined using weighing numbers and molecular weights.
# proteolytic enzymes = conditions: background statement; WO 92/19707 for aryl boronic acids; cited from earlier work
smiles,measurement,setting,value
O=Cc1ccccc1B(O)O [2-formyl-phenyl-boronic acid],Improvement Factor (IFI),Savinase [1],36
"OB(O)c1cc(Cl)cc(Cl)c1 [3,5-dichlorophenylboronic acid]",capacity as subtilisin inhibitor,subtilisin,particularly effective
O=Cc1cccc(B(O)O)c1 [3-formyl-phenyl-boronic acid],Improvement Factor (IFI),Savinase [1],230
O=C(O)c1ccc(B(O)O)cc1 [4-Carboxybenzeneboronic acid],IFI,Savinase [2],22
"O=Cc1ccc(B(O)O)cc1 [4-formyl-phenyl-boronic acid, 4-Formyl-phenyl-boronic acid]",inhibition effectiveness IFI,Savinase [3],2500
same,Ki,Savinase [4],300 µM
same,storage stability properties versus 2-formyl-phenyl-boronic acid,Savinase [1]; calculated on molar basis,at least 25 times better
same,storage stability properties versus 3-formyl-phenyl-boronic acid,Savinase [1]; calculated on molar basis,at least four times better
same,storage stability properties versus acetamidophenyl boronic acid,Savinase [1]; calculated on molar basis,at least three times better
same,Improvement Factor (IFI),Savinase [1],1000
OB(O)O [Boric acid],inhibition of proteolytic enzymes,proteolytic enzymes,reversibly inhibit proteolytic enzymes
CC(=O)Nc1cccc(B(O)O)c1 [acetamidophenyl boronic acid],Ki,Savinase [4],1000 µM
same,Improvement Factor (IFI),Savinase [1],300
CB(O)O [methylboronic acid],capacity as subtilisin inhibitor,subtilisin,poorest inhibitor

# — patent publication US5972873A, “4-substituted-phenyl-boronic acids as enzyme stabilizers” (Novo Nordisk A/S, priority 1995, dated 1999)
